The values that follow come from PubChem BioAssay (NCI).

Test systems include NCI-H522 lung; SK-MEL-2 melanoma; MCF7 breast; OVCAR-3 ovarian; CAKI-1 renal; COLO 205 colon; SN12C renal; MDA-MB-231 breast; UACC-257 melanoma; SK-OV-3 ovarian.
What all share (assay): NCI tumour cell line growth inhibition, 48 h

Molecules are shown by their SMILES.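 96-well plates; 48 h exposure; 5 concentrations. Endpoints by linear interpolation between flanking doses. Not reached: highest tested concentration assigned. Abbreviation: GI50, concentration required for 50% inhibition of growth. TGI is the concentration that stops growth completely.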

`C=C(C(=O)OCC)C(=O)OCC`: the TGI in the test on NCI-H522 lung, in the test with SK-MEL-2 melanoma, in the test on MCF7 breast, with OVCAR-3 ovarian, in the test on CAKI-1 renal and with COLO 205 colon was over 100 µM in each case. The TGI with SN12C renal, with MDA-MB-231 breast, in the test on UACC-257 melanoma and in the test with SK-OV-3 ovarian was over 100 µM throughout.
In the case of `Nc1ccc(N=Nc2c(S(=O)(=O)O)cc3ccccc3c2S(=O)(=O)O)cc1`, the TGI in the test with NCI-H522 lung, in the test with SK-MEL-2 melanoma, with OVCAR-3 ovarian, in the test on CAKI-1 renal, in the test on SN12C renal and with MDA-MB-231 breast was over 100 µM each time. For the same compound, in the test on UACC-257 melanoma, the TGI was over 100 µM.
On to `O=c1oc2cc(O)ccc2c(O)c1C(c1ccccc1)c1c(O)c2ccc(O)cc2oc1=O`, for which the TGI in the test with SK-MEL-2 melanoma, in the test with MCF7 breast, in the test with OVCAR-3 ovarian, in the test on CAKI-1 renal, in the test with COLO 205 colon and with SN12C renal was over 100 µM in each case. For the same compound, the TGI in the test with MDA-MB-231 breast, in the test with UACC-257 melanoma and in the test with SK-OV-3 ovarian was over 100 µM each time.
Turning to `O=C1CC2(CCC(O)(c3ccc4ccccc4c3)C(C(=O)c3ccc4ccccc4c3)C2)C(=O)c2ccccc2N1` (configuration not stated), the TGI with SK-MEL-2 melanoma, with MCF7 breast, in the test with OVCAR-3 ovarian, in the test with CAKI-1 renal, in the test with COLO 205 colon and in the test with SN12C renal was over 100 µM in each case. In addition, the TGI in the test with MDA-MB-231 breast, with UACC-257 melanoma and in the test on SK-OV-3 ovarian was over 100 µM each time.
For `O=C1CCC(c2ccccc2)=NN1c1nsc2ccccc12`, the TGI in the test on SK-MEL-2 melanoma, with OVCAR-3 ovarian, in the test on COLO 205 colon, in the test with SN12C renal and with UACC-257 melanoma was over 100 µM throughout.
On to `O=C(O)C(Cl)(Cl)Cl`, for which the TGI in the test on SK-MEL-2 melanoma, in the test on CAKI-1 renal, with COLO 205 colon, with SN12C renal, in the test with UACC-257 melanoma and in the test with SK-OV-3 ovarian was over 100 µM throughout.
`CCCCCCCCCCCCCCCCNc1cccc2ccccc12`: the TGI in the test with NCI-H522 lung, with OVCAR-3 ovarian, with COLO 205 colon, in the test with SN12C renal, in the test on UACC-257 melanoma and in the test with SK-OV-3 ovarian was over 100 µM each time.
Turning to `C[n+]1c(/C=C/c2c(O)ccc3ccccc23)ccc2ccccc21`, the GI50 with NCI-H522 lung was 2.52 µM; in the test on SK-MEL-2 melanoma, 5.91 µM; in the test with MCF7 breast, 1.12 µM; in the test with OVCAR-3 ovarian it was 2.29 µM; in the test with CAKI-1 renal it was 5.39 µM; in the test with COLO 205 colon, 4.07 µM. Besides, the figures for the GI50 in the test with SN12C renal, in the test with MDA-MB-231 breast and in the test with UACC-257 melanoma were 6.08 µM, 5.27 µM and 7.17 µM, respectively. In addition, the TGI was 10.2 µM in the test with NCI-H522 lung; 13.3 µM in the test on SK-MEL-2 melanoma; 7.89 µM in the test on MCF7 breast; 8.38 µM with OVCAR-3 ovarian; 12.3 µM in the test with CAKI-1 renal; 10.8 µM in the test with COLO 205 colon. In addition, the TGI with SN12C renal came to 13.6 µM; in the test on MDA-MB-231 breast it was 12.2 µM; in the test on UACC-257 melanoma, 14.9 µM.
Turning to `COc1cc2c(cc1OC)C(C(c1ccccc1)c1ccccc1)N(C)CC2` (configuration not stated), the TGI in the test on NCI-H522 lung was over 100 µM; in the test on SK-MEL-2 melanoma it was over 100 µM; in the test with MCF7 breast, over 100 µM; in the test with OVCAR-3 ovarian, over 100 µM; in the test on CAKI-1 renal, over 100 µM; in the test with COLO 205 colon it was 33.5 µM. The TGI was over 100 µM with SN12C renal, over 86.9 µM with UACC-257 melanoma and over 100 µM in the test on SK-OV-3 ovarian.
Take `C[N+](C)([O-])CCOc1cc2c(c3ccccc13)-c1ccccc1C2=O`: the TGI in the test on NCI-H522 lung was 26.5 µM; with SK-MEL-2 melanoma, 33.2 µM; in the test on MCF7 breast, over 100 µM; in the test with OVCAR-3 ovarian it was over 52.6 µM; with CAKI-1 renal, 61.9 µM; in the test with COLO 205 colon, 32.3 µM. Moreover, the TGI with SN12C renal is 62.3 µM; with UACC-257 melanoma it was 16.9 µM; in the test on SK-OV-3 ovarian, over 100 µM.
On to `COc1cnc2c(c1)C(=O)c1c-2n(CCCN2CCOCC2)c(=O)c2cc(Cl)ccc12`, for which the GI50 with NCI-H522 lung was 0.244 µM; in the test on SK-MEL-2 melanoma it was 30.5 µM; in the test on MCF7 breast, 0.0959 µM; with OVCAR-3 ovarian, 0.783 µM; in the test with CAKI-1 renal, 0.342 µM; with COLO 205 colon, 0.193 µM. In addition, the GI50 with MDA-MB-231 breast was over 100 µM; with SK-OV-3 ovarian, 0.397 µM. In addition, the TGI with NCI-H522 lung, in the test with SK-MEL-2 melanoma, in the test with MCF7 breast, in the test with OVCAR-3 ovarian, with CAKI-1 renal and in the test on COLO 205 colon was over 100 µM throughout. Moreover, the TGI in the test with MDA-MB-231 breast and in the test with SK-OV-3 ovarian was over 100 µM throughout.
With `NC(=O)c1c(NC(=O)c2ccccc2)sc2c1CCC(=O)C2`, the GI50 in the test with NCI-H522 lung was 0.346 µM; with SK-MEL-2 melanoma, 2.4 µM; with MCF7 breast, 1.82 µM; in the test on OVCAR-3 ovarian, 1.02 µM; in the test on CAKI-1 renal, 0.637 µM; with SN12C renal, 0.612 µM. For the same compound, the GI50 is 2.3 µM in the test on MDA-MB-231 breast, 2.21 µM with UACC-257 melanoma and 2.91 µM with SK-OV-3 ovarian. Also, the TGI was determined as 2.14 µM in the test with NCI-H522 lung; 7.21 µM with SK-MEL-2 melanoma; 9.02 µM in the test with MCF7 breast; 2.72 µM in the test on OVCAR-3 ovarian; 3.95 µM with CAKI-1 renal; 11.5 µM with SN12C renal. Further, the TGI was 22.9 µM with MDA-MB-231 breast, 6.13 µM with UACC-257 melanoma and over 100 µM in the test with SK-OV-3 ovarian.
